In PubChem BioAssay AID1963958 (Molecular Pharmacology Branch, DTP, NCI, 2024):

System: MDA-MB-231 multicell spheroids, viability
Experiment: Anticancer human tumor MDA-MB-231 cell line growth inhibition [PI3K];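 note: spheroids exposed to agents for seven days before reading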;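 for viability, T/C: percent of vehicle control luminescence with DMSO treated spheroids as 100%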
Settings: for IC50: curve of first compound; for viability, T/C: stronger effect = lower value; active = viability on the fitted dose curve at most 10% of control; inactive = the rest
Method in brief: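 Spheroid viability read-out. Co-cultures contained the tumor line plus HUVEC and human MSCs. Each agent was paired with a PI3K inhibitor (inavolisib, alpelisib, duvelisib, copanlisib) across half-log dilutions starting at clinical Cmax, or at 10 microM when Cmax was unknown.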

[1] = second compound 0.00316 µM, first compound 0.0316 µM
[2] = second compound 0.00316 µM, first compound 0.1 µM
[3] = second compound 0.00316 µM, first compound 0.316 µM
[4] = second compound 0.00316 µM, first compound 1 µM
[5] = second compound 0.00316 µM, first compound 3.16 µM
[6] = second compound 0.00316 µM, first compound 10 µM
[7] = second compound 0.01 µM, first compound 0.0316 µM
[8] = second compound 0.01 µM, first compound 0.1 µM
[9] = second compound 0.01 µM, first compound 0.316 µM
[10] = second compound 0.01 µM, first compound 1 µM
[11] = second compound 0.01 µM, first compound 3.16 µM
[12] = second compound 0.01 µM, first compound 10 µM
[13] = second compound 0.0316 µM, first compound 0.0316 µM
[14] = second compound 0.0316 µM, first compound 0.1 µM
[15] = second compound 0.0316 µM, first compound 0.316 µM
[16] = second compound 0.0316 µM, first compound 1 µM
[17] = second compound 0.0316 µM, first compound 3.16 µM
[18] = second compound 0.0316 µM, first compound 10 µM
[19] = second compound 0.1 µM, first compound 0.0316 µM
[20] = second compound 0.1 µM, first compound 0.1 µM
[21] = second compound 0.1 µM, first compound 0.316 µM
[22] = second compound 0.1 µM, first compound 1 µM
[23] = second compound 0.1 µM, first compound 3.16 µM
[24] = second compound 0.1 µM, first compound 10 µM
[25] = second compound 0.316 µM, first compound 0.0316 µM
[26] = second compound 0.316 µM, first compound 0.1 µM
[27] = second compound 0.316 µM, first compound 0.316 µM
[28] = second compound 0.316 µM, first compound 1 µM
[29] = second compound 0.316 µM, first compound 3.16 µM
[30] = second compound 0.316 µM, first compound 10 µM
[31] = second compound 1 µM, first compound 0.0316 µM
[32] = second compound 1 µM, first compound 0.1 µM
[33] = second compound 1 µM, first compound 0.316 µM
[34] = second compound 1 µM, first compound 1 µM
[35] = second compound 1 µM, first compound 3.16 µM
[36] = second compound 1 µM, first compound 10 µM

CC1(C)CCC(Nc2ncc(C(F)(F)F)c(-c3c[nH]c4c(P(C)(C)=O)c(C#N)ccc34)n2)CN1 (stereo unspecified) + COc1c(OCCCN2CCOCC2)ccc2c3n(c(=NC(=O)c4cnc(N)nc4)nc12)CCN3
active: viability, T/C [6] 4.47% | viability, T/C [12] 3.69% | viability, T/C [18] 3.49%
inactive: viability, T/C [1] 52.3% | viability, T/C [2] 45% | viability, T/C [3] 49.5% | viability, T/C [4] 55% | viability, T/C [5] 55.7% | viability, T/C [7] 48.4% | viability, T/C [8] 43.3% | viability, T/C [9] 45.8% | viability, T/C [10] 50.7% | viability, T/C [11] 45.2% | viability, T/C [13] 42.3% | viability, T/C [14] 43.2% | viability, T/C [15] 38.2% | viability, T/C [16] 41.5% | viability, T/C [17] 38.8% | viability, T/C [19] 35.4% | viability, T/C [20] 31.1% | viability, T/C [21] 31.5% | viability, T/C [22] 30.6% | viability, T/C [23] 30.7% | viability, T/C [24] 3.64% | viability, T/C [25] 24.9% | viability, T/C [26] 23.2% | viability, T/C [27] 23.9% | viability, T/C [28] 24.6% | viability, T/C [29] 24.8% | viability, T/C [30] 2.87% | viability, T/C [31] 21.9% | viability, T/C [32] 20.9% | viability, T/C [33] 20.7% | viability, T/C [34] 22% | viability, T/C [35] 21.9% | viability, T/C [36] 2.6%
3280 nM: IC50 (second compound 0.00316 µM)
< 31.6 nM: IC50 (second compound 0.01 µM) | IC50 (second compound 0.0316 µM) | IC50 (second compound 0.1 µM) | IC50 (second compound 0.316 µM) | IC50 (second compound 1 µM)

Cn1ncc(Cl)c1-c1cc(C(=O)NC(CN)Cc2cccc(F)c2)sc1Cl (stereo unspecified) + COc1c(OCCCN2CCOCC2)ccc2c3n(c(=NC(=O)c4cnc(N)nc4)nc12)CCN3
inactive: viability, T/C [1] 99.2% | viability, T/C [2] 93.8% | viability, T/C [3] 84.5% | viability, T/C [4] 72% | viability, T/C [5] 44.6% | viability, T/C [6] 25.7% | viability, T/C [7] 78.6% | viability, T/C [8] 83.1% | viability, T/C [9] 74.2% | viability, T/C [10] 63.7% | viability, T/C [11] 42.3% | viability, T/C [12] 25.4% | viability, T/C [13] 60.2% | viability, T/C [14] 61.5% | viability, T/C [15] 60.8% | viability, T/C [16] 48.9% | viability, T/C [17] 34.8% | viability, T/C [18] 19.6% | viability, T/C [19] 48.2% | viability, T/C [20] 47.5% | viability, T/C [21] 46% | viability, T/C [22] 40.7% | viability, T/C [23] 29.9% | viability, T/C [24] 17.4% | viability, T/C [25] 32.5% | viability, T/C [26] 33.6% | viability, T/C [27] 29.9% | viability, T/C [28] 29.2% | viability, T/C [29] 20.9% | viability, T/C [30] 13.9% | viability, T/C [31] 25.8% | viability, T/C [32] 24.8% | viability, T/C [33] 24.4% | viability, T/C [34] 23.4% | viability, T/C [35] 22.2% | viability, T/C [36] 20.8%
2620 nM: IC50 (second compound 0.00316 µM)
2080 nM: IC50 (second compound 0.01 µM)
< 31.6 nM: IC50 (second compound 0.1 µM) | IC50 (second compound 0.316 µM) | IC50 (second compound 1 µM)
1040 nM: IC50 (second compound 0.0316 µM)

Cn1nccc1Nc1nccc(-c2ccn(C(CO)c3ccc(Cl)c(F)c3)c(=O)c2)n1 (stereo unspecified) + COc1c(OCCCN2CCOCC2)ccc2c3n(c(=NC(=O)c4cnc(N)nc4)nc12)CCN3
< 31.6 nM: IC50 (second compound 0.1 µM) | IC50 (second compound 0.316 µM) | IC50 (second compound 1 µM)
48.2 nM: IC50 (second compound 0.0316 µM)
222 nM: IC50 (second compound 0.01 µM)
467 nM: IC50 (second compound 0.00316 µM)
active: viability, T/C [30] 8.91% | viability, T/C [36] 7.95%
inactive: viability, T/C [1] 74.5% | viability, T/C [2] 69.9% | viability, T/C [3] 48.3% | viability, T/C [4] 44% | viability, T/C [5] 37.7% | viability, T/C [6] 28% | viability, T/C [7] 65.9% | viability, T/C [8] 58.6% | viability, T/C [9] 46% | viability, T/C [10] 34.8% | viability, T/C [11] 28.3% | viability, T/C [12] 23.5% | viability, T/C [13] 50.3% | viability, T/C [14] 48.9% | viability, T/C [15] 41.8% | viability, T/C [16] 32.5% | viability, T/C [17] 26.6% | viability, T/C [18] 20.4% | viability, T/C [19] 41.6% | viability, T/C [20] 34.3% | viability, T/C [21] 29.3% | viability, T/C [22] 25.9% | viability, T/C [23] 22.4% | viability, T/C [24] 13.1% | viability, T/C [25] 25.8% | viability, T/C [26] 22.8% | viability, T/C [27] 17.8% | viability, T/C [28] 17% | viability, T/C [29] 13.2% | viability, T/C [31] 20.8% | viability, T/C [32] 16.8% | viability, T/C [33] 13.8% | viability, T/C [34] 12.7% | viability, T/C [35] 10.5%
